Experimental data published in patent publication US11697679B2, “Modified collagen protein and application of same” (UNIVERSITY OF TSUKUBA, priority 2017, dated 2023).

System: GFP-inserted Type V collagen α1 expression MC3T3-E1
Experiment: Fibrogenesis inhibitory experiment in stress culture in multi-well plates
Type: cell-based, mouse
Settings: 1.0 mg/ml added when switched to stress culture; observed after 28 days; compared to wells without Pirfenidone; FIG. 18
Method: Normal cultivation was performed using the following materials. Cultivations using MC3T3-E1 and Balb3T3, respectively, were performed in αMEM medium containing 10% serum, and in MEM medium containing 10% serum, at 37° C. and 5% CO2. • Serum: Fetal bovine serum (Gibco) • Medium: Minimum Essential Medium Alpha (Gibco) • Medium: Minimum Essential Medium (Gibco) • Dish for culturing cells: Cell culture dish 60×15 mm (Falcon)
The following flasks were filled with medium for shaking culture. • Cell-culture flasks: 25 mL (Falcon) of Cell culture flask (12.5 cm^2 slant neck/plug seal)
The shaking culture was performed using a mini-shaker SHM-2002 (LMS) at a shaking angle of 7° and a rotational speed of 20 rpm using a sunflower shaking method.
OLYMPUS LX73 was used for fluorescent microscopy. The following filter sets were used for fluorescence imaging. • Green Fluorescence: U-EGFP (OLYMPUS), Ex: 470/20, Em: 518/45 • Red fluorescence: BrightLine®SpGold-B-000-ZERO (Semrock), Ex: 534/20, Em: 572/28 • Near Infrared Fluorescence: BrightLine®Cy5.5-B-000 (Semrock), Ex: 655/40, Em: 716/40
The GFP-inserted Type V collagen α1 expression MC3T3-E1 was cultured in multi-well plates and when switched to stress cultures capable of inducing collagen secretion, 1.0 mg/ml of Pirfenidone was added and compared to wells without such addition of Pirfenidone. […]

Cc1ccc(=O)n(-c2ccccc2)c1 [Pirfenidone]
extracellular collagen fiber formation (green fluorescent fiber structures): inhibited
